pKd: −log10 of the molar value. Read-outs that look alike come from different tables or passages of the source. *1 amine or outer side, *2 acyl side, *3 side chain or, on linkers, in order; H or OH if unused. Where a SMILES comes first, the peptide text is derived from it. Bridges are numbered along the chain shown (N, C = ends). [ ]: non-standard residue; d: D form. The star is where a group is joined. hPhe(3-Cl-4-CF3) = N[C@@H](CCc1ccc(C(F)(F)F)c(Cl)c1)C(=O)O; NEtPhe(4-CF3) = CCN[C@@H](Cc1ccc(C(F)(F)F)cc1)C(=O)O; NEtPhe(4-Me) = CCN[C@@H](Cc1ccc(C)cc1)C(=O)O; NMePhe(4-Me) = CN[C@@H](Cc1ccc(C)cc1)C(=O)O; X7 = CCN([C@H](C(=O)[*:2])C1CCCC1)[*:1]; NMeGly(cPent) = CN[C@H](C(=O)O)C1CCCC1; Hyp = O=C(O)[C@@H]1C[C@@H](O)CN1; NMeF = CN[C@@H](Cc1ccccc1)C(=O)O; NMeD = CN[C@@H](CC(=O)O)C(=O)O; NMeL = CN[C@@H](CC(C)C)C(=O)O; NMeV = CN[C@H](C(=O)O)C(C)C; Morpholide = C1CN(*)CCO1; NMeA = CN[C@@H](C)C(=O)O; Ac5c = NC1(C(=O)O)CCCC1; Aze = O=C(O)[C@@H]1CCN1; NEtG = CCNCC(=O)O; Sar = CNCC(=O)O
How the values were obtained:
[1] = biological target: GDP-bound KRAS wild-type protein (Homo sapiens, UniProt P01116); test: Binding to KRAS by surface plasmon resonance (SPR), Single Cycle Kinetics; settings: GDP-bound KRAS wild-type protein, read-out: KRAS KD
GDP-bound KRAS wild-type protein, sequence (P01116 whole entry): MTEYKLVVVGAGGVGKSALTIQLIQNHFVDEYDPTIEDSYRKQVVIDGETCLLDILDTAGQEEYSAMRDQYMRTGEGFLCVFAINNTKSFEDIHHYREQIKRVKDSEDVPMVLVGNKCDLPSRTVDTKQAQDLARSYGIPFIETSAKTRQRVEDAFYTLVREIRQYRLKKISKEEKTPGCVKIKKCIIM

[2] = biological target: GDP-bound NRAS wild-type protein (Homo sapiens, UniProt P01111); test: Binding to NRAS by surface plasmon resonance (SPR), Single Cycle Kinetics; settings: SPR, GDP-bound NRAS wild-type protein vs GDP-bound KRAS wild-type protein
GDP-bound NRAS wild-type protein, sequence (P01111 whole entry): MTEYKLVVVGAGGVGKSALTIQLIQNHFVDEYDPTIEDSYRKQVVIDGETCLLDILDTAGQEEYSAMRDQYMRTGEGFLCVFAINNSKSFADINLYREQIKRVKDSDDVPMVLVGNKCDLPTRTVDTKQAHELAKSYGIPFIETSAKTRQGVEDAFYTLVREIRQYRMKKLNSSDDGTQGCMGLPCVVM

[3] = biological target: GDP-bound HRAS wild-type protein (Homo sapiens, UniProt P01112); test: Binding to HRAS by surface plasmon resonance (SPR), Single Cycle Kinetics; settings: for HRAS/KRAS (ratio of KD value for HRAS to KD value for KRAS): SPR, GDP-bound HRAS wild-type protein vs GDP-bound KRAS wild-type protein
GDP-bound HRAS wild-type protein, sequence (P01112 whole entry): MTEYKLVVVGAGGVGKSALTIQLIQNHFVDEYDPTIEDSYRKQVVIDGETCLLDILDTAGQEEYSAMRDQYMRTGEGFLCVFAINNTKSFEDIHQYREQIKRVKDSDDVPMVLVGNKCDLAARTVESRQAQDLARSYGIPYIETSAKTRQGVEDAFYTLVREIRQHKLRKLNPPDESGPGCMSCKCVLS

[4] = SPR Single Cycle Kinetics, 1:1 binding model

| SMILES | pKd [1, 4] | pKd ([1]; SPR, Single Cycle Kinetics) | NRAS/KRAS (ratio of KD value for NRAS to KD value for KRAS) [2] | HRAS/KRAS (ratio of KD value for HRAS to KD value for KRAS) [3] | HRAS/KRAS (ratio of KD value with respect to GDP-bound HRAS wild-type protein to KD value with respect to KRAS) ([3]; SPR KD ratio HRAS/KRAS, class symbols) |
| --- | --- | --- | --- | --- | --- |
| CC[C@H](C)[C@@H]1NC(=O)[C@H](CC(C)C)N(C)C(=O)C[C@@H](C(=O)N2CCOCC2)N(C)C(=O)[C@H](C2CCCC2)N(C)C(=O)C2(CCCC2)NC(=O)[C@@H]2CCCN2C(=O)[C@H](CCc2ccc(C(F)(F)F)c(Cl)c2)NC(=O)CN(C)C(=O)[C@H](Cc2ccc(C(F)(F)F)cc2)N(CC)C(=O)[C@@H]2CCN2C(=O)[C@H](C)N(C)C1=O [PP0002] ([NMeL]I[NMeA][Aze][NEtPhe(4-CF3)][Sar][hPhe(3-Cl-4-CF3)]P[Ac5c][NMeGly(cPent)][NMeD]-Morpholide; lactam N-11) | 9.74 | – | C (A compound having a KD ratio of 0.1 or more and less than 3 is denoted as C) | C (A compound having a KD ratio of 0.1 or more and less than 3 is denoted as C) | – |
| CC[C@H](C)[C@@H]1NC(=O)[C@H](CC(C)C)N(C)C(=O)C[C@@H](C(=O)N2CCOCC2)N(C)C(=O)[C@H](C2CCCC2)N(C)C(=O)C2(CCCC2)NC(=O)[C@@H]2CCCN2C(=O)[C@H](CCc2ccc(C(F)(F)F)c(Cl)c2)NC(=O)CN(C)C(=O)[C@H](C2CCCC2)N(CC)C(=O)[C@@H]2CCN2C(=O)[C@H](C)N(C)C1=O [PP0003] ([NMeL]I[NMeA][Aze][X7][Sar][hPhe(3-Cl-4-CF3)]P[Ac5c][NMeGly(cPent)][NMeD]-Morpholide; lactam N-11) | 8.70 | – | C (A compound having a KD ratio of 0.1 or more and less than 3 is denoted as C) | C (A compound having a KD ratio of 0.1 or more and less than 3 is denoted as C) | – |
| CC[C@H](C)[C@@H]1NC(=O)[C@H](CC(C)C)N(C)C(=O)C[C@@H](C(=O)N2CCOCC2)N(C)C(=O)[C@H](C2CCCC2)N(C)C(=O)C2(CCCC2)NC(=O)[C@@H]2CCCN2C(=O)[C@H](CCc2ccc(C(F)(F)F)c(Cl)c2)NC(=O)CN(C)C(=O)[C@H](Cc2ccccc2)N(C)C(=O)[C@@H]2CCN2C(=O)[C@H](C)N(C)C1=O [PP0011] ([NMeL]I[NMeA][Aze][NMeF][Sar][hPhe(3-Cl-4-CF3)]P[Ac5c][NMeGly(cPent)][NMeD]-Morpholide; lactam N-11) | 9.52 | – | C (A compound having a KD ratio of 0.1 or more and less than 3 is denoted as C) | C (A compound having a KD ratio of 0.1 or more and less than 3 is denoted as C) | – |
| CC[C@H](C)[C@@H]1NC(=O)[C@H](CC(C)C)N(C)C(=O)C[C@@H](C(=O)N2CCOCC2)N(C)C(=O)[C@H](C2CCCC2)N(C)C(=O)C2(CCCC2)NC(=O)[C@@H]2C[C@@H](O)CN2C(=O)[C@H](CCc2ccc(C(F)(F)F)c(Cl)c2)NC(=O)CN(C)C(=O)[C@H](Cc2ccc(C)cc2)N(CC)C(=O)[C@@H]2CCN2C(=O)[C@H](C)N(C)C1=O [PP0013] ([NMeL]I[NMeA][Aze][NEtPhe(4-Me)][Sar][hPhe(3-Cl-4-CF3)][Hyp][Ac5c][NMeGly(cPent)][NMeD]-Morpholide; lactam N-11) | 10.14 | – | C (A compound having a KD ratio of 0.1 or more and less than 3 is denoted as C) | C (A compound having a KD ratio of 0.1 or more and less than 3 is denoted as C) | – |
| CCO[C@@H]1C[C@H]2C(=O)NC3(CCCC3)C(=O)N(C)[C@@H](C3CCCC3)C(=O)N(C)[C@H](C(=O)N3CCOCC3)CC(=O)N(C)[C@@H](CC(C)C)C(=O)N[C@@H]([C@@H](C)CC)C(=O)N(C)[C@@H](C)C(=O)N3CC[C@H]3C(=O)N(CC)[C@@H](Cc3ccc(C)cc3)C(=O)N(C)CC(=O)N[C@@H](CCc3ccc(C(F)(F)F)c(Cl)c3)C(=O)N2C1 [PP0014] ([NMeL]I[NMeA][Aze][NEtPhe(4-Me)][Sar][hPhe(3-Cl-4-CF3)][Hyp](Et)[Ac5c][NMeGly(cPent)][NMeD]-Morpholide; lactam N-11) | 10.05 | – | C (A compound having a KD ratio of 0.1 or more and less than 3 is denoted as C) | C (A compound having a KD ratio of 0.1 or more and less than 3 is denoted as C) | – |
| CC[C@H](C)[C@@H]1NC(=O)[C@H](CC(C)C)N(C)C(=O)C[C@@H](C(=O)N2CCOCC2)N(C)C(=O)[C@H](C(C)C)N(C)C(=O)C2(CCCC2)NC(=O)[C@@H]2CCCN2C(=O)[C@H](CCc2ccc(C(F)(F)F)c(Cl)c2)NC(=O)CN(C)C(=O)[C@H](Cc2ccc(C)cc2)N(CC)C(=O)[C@@H]2CCN2C(=O)[C@H](C)N(C)C1=O [PP0015] ([NMeL]I[NMeA][Aze][NEtPhe(4-Me)][Sar][hPhe(3-Cl-4-CF3)]P[Ac5c][NMeV][NMeD]-Morpholide; lactam N-11) | 8.57 | – | C (A compound having a KD ratio of 0.1 or more and less than 3 is denoted as C) | C (A compound having a KD ratio of 0.1 or more and less than 3 is denoted as C) | – |
| CC[C@H](C)[C@@H]1NC(=O)[C@H](CC(C)C)N(C)C(=O)C[C@@H](C(=O)N2CCOCC2)N(C)C(=O)[C@H](CC(C)C)N(C)C(=O)C2(CCCC2)NC(=O)[C@@H]2CCCN2C(=O)[C@H](CCc2ccc(C(F)(F)F)c(Cl)c2)NC(=O)CN(C)C(=O)[C@H](Cc2ccc(C)cc2)N(CC)C(=O)[C@@H]2CCN2C(=O)[C@H](C)N(C)C1=O [PP0016] ([NMeL]I[NMeA][Aze][NEtPhe(4-Me)][Sar][hPhe(3-Cl-4-CF3)]P[Ac5c][NMeL][NMeD]-Morpholide; lactam N-11) | 8.80 | – | C (A compound having a KD ratio of 0.1 or more and less than 3 is denoted as C) | C (A compound having a KD ratio of 0.1 or more and less than 3 is denoted as C) | – |
| CCC[C@H]1C(=O)N[C@@H]([C@@H](C)CC)C(=O)N(C)CC(=O)N(C)[C@H]2C/C=C\CCN(C2=O)[C@@H](Cc2ccc(C)cc2)C(=O)N(C)CC(=O)N[C@@H](CCc2ccc(Cl)c(OC)c2)C(=O)N2C[C@H](OCC)C[C@H]2C(=O)NC2(CC(C)(C)C2)C(=O)N(C)[C@@H](C(CC)CC)C(=O)N(C)[C@H](C(=O)N(C)C)CC(=O)N1C [PP2791] | 8.72 | – | – | – | A (a compound having 10 or more and less than 20 is denoted as A) |
| CCO[C@@H]1C[C@H]2C(=O)NC3(CC(C)(C)C3)C(=O)N(C)[C@@H](C3CCCC3)C(=O)N(C)[C@H](C(=O)N(C)C)CC(=O)N(C)[C@H]3CCCCCCc4ccc(cc4)C[C@@H](C(=O)N(C)CC(=O)N[C@@H](CCc4ccc(C(F)(F)F)c(OC)c4)C(=O)N2C1)N1CC/C=C\C[C@@H](C1=O)N(C)C(=O)CN(C1CC1)C(=O)[C@H]([C@@H](C)CC)NC3=O [PP3070] | – | 9.77 | – | B (a compound having 3 or more and less than 10 is denoted as B) | – |

Second part, led by results:

| pKd [1, 4] | pKd ([1]; SPR, Single Cycle Kinetics) | SMILES | NRAS/KRAS (ratio of KD value for NRAS to KD value for KRAS) [2] | HRAS/KRAS (ratio of KD value for HRAS to KD value for KRAS) [3] | HRAS/KRAS (ratio of KD value with respect to GDP-bound HRAS wild-type protein to KD value with respect to KRAS) ([3]; SPR KD ratio HRAS/KRAS, class symbols) |
| --- | --- | --- | --- | --- | --- |
| 9.85 | – | CC[C@H](C)[C@@H]1NC(=O)[C@H](CC(C)C)N(C)C(=O)C[C@@H](C(=O)N2CCOCC2)N(C)C(=O)[C@H](C2CCCC2)N(C)C(=O)C2(CCCC2)NC(=O)[C@@H]2CCCN2C(=O)[C@H](CCc2ccc(C(F)(F)F)c(Cl)c2)NC(=O)CN(C)C(=O)[C@H](Cc2ccc(C)cc2)N(C)C(=O)[C@@H]2CCN2C(=O)[C@H](C)N(C)C1=O [PP0001] ([NMeL]I[NMeA][Aze][NMePhe(4-Me)][Sar][hPhe(3-Cl-4-CF3)]P[Ac5c][NMeGly(cPent)][NMeD]-Morpholide; lactam N-11) | C (A compound having a KD ratio of 0.1 or more and less than 3 is denoted as C) | C (A compound having a KD ratio of 0.1 or more and less than 3 is denoted as C) | – |
| 8.62 | – | CC[C@H](C)[C@@H]1NC(=O)[C@H](CC(C)C)N(C)C(=O)C[C@@H](C(=O)N2CCOCC2)N(C)C(=O)[C@H](C2CCCC2)N(C)C(=O)C2(CCCC2)NC(=O)[C@@H]2CCCN2C(=O)[C@H](CCc2ccc(C(F)(F)F)c(Cl)c2)NC(=O)CN(CC)C(=O)[C@H](Cc2ccc(C)cc2)N(C)C(=O)[C@@H]2CCN2C(=O)[C@H](C)N(C)C1=O [PP0004] ([NMeL]I[NMeA][Aze][NMePhe(4-Me)][NEtG][hPhe(3-Cl-4-CF3)]P[Ac5c][NMeGly(cPent)][NMeD]-Morpholide; lactam N-11) | C (A compound having a KD ratio of 0.1 or more and less than 3 is denoted as C) | C (A compound having a KD ratio of 0.1 or more and less than 3 is denoted as C) | – |
| 8.82 | – | CC[C@H](C)[C@@H]1NC(=O)[C@H](CC(C)C)N(C)C(=O)C[C@@H](C(=O)N2CCOCC2)N(C)C(=O)[C@H](C2CCCC2)N(C)C(=O)C2(CCCC2)NC(=O)[C@@H]2CCCN2C(=O)[C@H](CCc2ccc(C(F)(F)F)c(Cl)c2)NC(=O)CN(CC)C(=O)[C@H](Cc2ccc(C)cc2)N(CC)C(=O)[C@@H]2CCN2C(=O)[C@H](C)N(C)C1=O [PP0006] ([NMeL]I[NMeA][Aze][NEtPhe(4-Me)][NEtG][hPhe(3-Cl-4-CF3)]P[Ac5c][NMeGly(cPent)][NMeD]-Morpholide; lactam N-11) | C (A compound having a KD ratio of 0.1 or more and less than 3 is denoted as C) | C (A compound having a KD ratio of 0.1 or more and less than 3 is denoted as C) | – |
| 10.13 | – | CC[C@H](C)[C@@H]1NC(=O)[C@H](C)N(C)C(=O)C[C@@H](C(=O)N2CCOCC2)N(C)C(=O)[C@H](C2CCCC2)N(C)C(=O)C2(CCCC2)NC(=O)[C@@H]2CCCN2C(=O)[C@H](CCc2ccc(C(F)(F)F)c(Cl)c2)NC(=O)CN(C)C(=O)[C@H](Cc2ccc(C)cc2)N(CC)C(=O)[C@@H]2CCN2C(=O)[C@H](C)N(C)C1=O [PP0007] ([NMeA]I[NMeA][Aze][NEtPhe(4-Me)][Sar][hPhe(3-Cl-4-CF3)]P[Ac5c][NMeGly(cPent)][NMeD]-Morpholide; lactam N-11) | C (A compound having a KD ratio of 0.1 or more and less than 3 is denoted as C) | C (A compound having a KD ratio of 0.1 or more and less than 3 is denoted as C) | – |
